System: 857933-349-R-J2-PDC complex spheroid viability
Test: Anticancer human tumor 857933-349-R-J2-PDC patient-derived colon adenocarcinoma cell line growth inhibition [POLQ]
Details: for IC50: curve of first compound; for viability, T/C: stronger effect = lower value
Summary of the method: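 Patient-derived tumour cells were co-cultured with HUVEC and mesenchymal stem cells as multicellular spheroids at 37 °C. They were treated with POLQ inhibitors (novobiocin, ART-558, RP6685) alone or combined with other agents. Top concentrations were at or near clinical Cmax (otherwise 10 microM; SN-38 at 1 microM), decreasing in half-log steps.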

[1] = second compound 0.0316 µM, first compound 0.00316 µM
[2] = second compound 0.0316 µM, first compound 0.01 µM
[3] = second compound 0.0316 µM, first compound 0.0316 µM
[4] = second compound 0.0316 µM, first compound 0.1 µM
[5] = second compound 0.0316 µM, first compound 0.316 µM
[6] = second compound 0.0316 µM, first compound 1 µM
[7] = second compound 0.1 µM, first compound 0.00316 µM
[8] = second compound 0.1 µM, first compound 0.01 µM
[9] = second compound 0.1 µM, first compound 0.0316 µM
[10] = second compound 0.1 µM, first compound 0.1 µM
[11] = second compound 0.1 µM, first compound 0.316 µM
[12] = second compound 0.1 µM, first compound 1 µM
[13] = second compound 0.316 µM, first compound 0.00316 µM
[14] = second compound 0.316 µM, first compound 0.01 µM
[15] = second compound 0.316 µM, first compound 0.0316 µM
[16] = second compound 0.316 µM, first compound 0.1 µM
[17] = second compound 0.316 µM, first compound 0.316 µM
[18] = second compound 0.316 µM, first compound 1 µM
[19] = second compound 1 µM, first compound 0.00316 µM
[20] = second compound 1 µM, first compound 0.01 µM
[21] = second compound 1 µM, first compound 0.0316 µM
[22] = second compound 1 µM, first compound 0.1 µM
[23] = second compound 1 µM, first compound 0.316 µM
[24] = second compound 1 µM, first compound 1 µM
[25] = second compound 3.16 µM, first compound 0.00316 µM
[26] = second compound 3.16 µM, first compound 0.01 µM
[27] = second compound 3.16 µM, first compound 0.0316 µM
[28] = second compound 3.16 µM, first compound 0.1 µM
[29] = second compound 3.16 µM, first compound 0.316 µM
[30] = second compound 3.16 µM, first compound 1 µM
[31] = second compound 10 µM, first compound 0.00316 µM
[32] = second compound 10 µM, first compound 0.01 µM
[33] = second compound 10 µM, first compound 0.0316 µM
[34] = second compound 10 µM, first compound 0.1 µM
[35] = second compound 10 µM, first compound 0.316 µM
[36] = second compound 10 µM, first compound 1 µM
[37] = second compound 0.0316 µM, first compound 3.16 µM
[38] = second compound 0.0316 µM, first compound 10 µM
[39] = second compound 0.1 µM, first compound 3.16 µM
[40] = second compound 0.1 µM, first compound 10 µM
[41] = second compound 0.316 µM, first compound 3.16 µM
[42] = second compound 0.316 µM, first compound 10 µM
[43] = second compound 1 µM, first compound 3.16 µM
[44] = second compound 1 µM, first compound 10 µM
[45] = second compound 3.16 µM, first compound 3.16 µM
[46] = second compound 3.16 µM, first compound 10 µM
[47] = second compound 10 µM, first compound 3.16 µM
[48] = second compound 10 µM, first compound 10 µM
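Also: spheroids exposed to compounds for seven days before readout.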

## CCc1c2c(nc3ccc(O)cc13)-c1cc3c(c(=O)n1C2)COC(=O)[C@]3(O)CC + COC1C(OC(N)=O)C(O)C(Oc2ccc3c(O)c(NC(=O)c4ccc(O)c(CC=C(C)C)c4)c(=O)oc3c2C)OC1(C)C
Second compound 0.0316 µM
  IC50: 0.0199 µM
Second compound 0.1 µM
  IC50: 0.0194 µM
Second compound 0.316 µM
  IC50: 0.0175 µM
Second compound 1 µM
  IC50: 0.0125 µM
Second compound 3.16 µM
  IC50: 0.0158 µM
Second compound 10 µM
  IC50: 0.00942 µM
[1]
  viability, T/C: 84.5%
[2]
  viability, T/C: 71.7%
[3]
  viability, T/C: 32.1%
[4]
  viability, T/C: 25.3%
[5]
  viability, T/C: 17.5%
[6]
  viability, T/C: 5.52%
[7]
  viability, T/C: 88.3%
[8]
  viability, T/C: 76.1%
[9]
  viability, T/C: 29.7%
[10]
  viability, T/C: 20.2%
[11]
  viability, T/C: 14.1%
[12]
  viability, T/C: 4.89%
[13]
  viability, T/C: 92.3%
[14]
  viability, T/C: 71.7%
[15]
  viability, T/C: 26.3%
[16]
  viability, T/C: 17.3%
[17]
  viability, T/C: 15.2%
[18]
  viability, T/C: 5.5%
[19]
  viability, T/C: 89%
[20]
  viability, T/C: 56.6%
[21]
  viability, T/C: 22.9%
[22]
  viability, T/C: 16.7%
[23]
  viability, T/C: 16.2%
[24]
  viability, T/C: 5.68%
[25]
  viability, T/C: 84.8%
[26]
  viability, T/C: 62.8%
[27]
  viability, T/C: 29.8%
[28]
  viability, T/C: 22.4%
[29]
  viability, T/C: 12.5%
[30]
  viability, T/C: 6.77%
[31]
  viability, T/C: 80.6%
[32]
  viability, T/C: 42.7%
[33]
  viability, T/C: 35%
[34]
  viability, T/C: 16.2%
[35]
  viability, T/C: 12.2%
[36]
  viability, T/C: 4.37%

## COc1cc2cc(C(=O)CCC(=O)O)sc2cc1OC + COC1C(OC(N)=O)C(O)C(Oc2ccc3c(O)c(NC(=O)c4ccc(O)c(CC=C(C)C)c4)c(=O)oc3c2C)OC1(C)C
Second compound 0.0316 µM
  IC50: > 10 µM
Second compound 0.1 µM
  IC50: > 10 µM
Second compound 0.316 µM
  IC50: > 10 µM
Second compound 1 µM
  IC50: > 10 µM
Second compound 3.16 µM
  IC50: > 10 µM
Second compound 10 µM
  IC50: > 10 µM
[3]
  viability, T/C: 82%
[4]
  viability, T/C: 98.3%
[5]
  viability, T/C: 79.9%
[6]
  viability, T/C: 79%
[37]
  viability, T/C: 106%
[38]
  viability, T/C: 93.8%
[9]
  viability, T/C: 91.4%
[10]
  viability, T/C: 95.5%
[11]
  viability, T/C: 98.1%
[12]
  viability, T/C: 79.2%
[39]
  viability, T/C: 92.5%
[40]
  viability, T/C: 111%
[15]
  viability, T/C: 104%
[16]
  viability, T/C: 102%
[17]
  viability, T/C: 84%
[18]
  viability, T/C: 97.2%
[41]
  viability, T/C: 84.4%
[42]
  viability, T/C: 79.7%
[21]
  viability, T/C: 110%
[22]
  viability, T/C: 112%
[23]
  viability, T/C: 103%
[24]
  viability, T/C: 94.2%
[43]
  viability, T/C: 110%
[44]
  viability, T/C: 122%
[27]
  viability, T/C: 90.6%
[28]
  viability, T/C: 91.1%
[29]
  viability, T/C: 86.6%
[30]
  viability, T/C: 77.4%
[45]
  viability, T/C: 84.1%
[46]
  viability, T/C: 90%
[33]
  viability, T/C: 76.4%
[34]
  viability, T/C: 98.1%
[35]
  viability, T/C: 108%
[36]
  viability, T/C: 116%
[47]
  viability, T/C: 112%
[48]
  viability, T/C: 91.9%

## CCc1cc2c(N3CCc4c(cc(Cn5ccnc5)cc4-c4cn(C)nc4C(F)(F)F)C3=O)cc(C)nc2c(OC)n1 + Cc1cccc(N(C)C(=O)C2C(O)CCN2c2nc(C)cc(C(F)(F)F)c2C#N)c1
Second compound 0.0316 µM
  IC50: > 10 µM
Second compound 0.1 µM
  IC50: > 10 µM
Second compound 0.316 µM
  IC50: > 10 µM
Second compound 1 µM
  IC50: > 10 µM
Second compound 3.16 µM
  IC50: > 10 µM
Second compound 10 µM
  IC50: > 10 µM
[3]
  viability, T/C: 106%
[4]
  viability, T/C: 93.2%
[5]
  viability, T/C: 99%
[6]
  viability, T/C: 79.9%
[37]
  viability, T/C: 75.1%
[38]
  viability, T/C: 62.3%
[9]
  viability, T/C: 106%
[10]
  viability, T/C: 103%
[11]
  viability, T/C: 78.5%
[12]
  viability, T/C: 82%
[39]
  viability, T/C: 77.6%
[40]
  viability, T/C: 68.8%
[15]
  viability, T/C: 100%
[16]
  viability, T/C: 89.6%
[17]
  viability, T/C: 83.5%
[18]
  viability, T/C: 82.8%
[41]
  viability, T/C: 80.3%
[42]
  viability, T/C: 61.6%
[21]
  viability, T/C: 99.6%
[22]
  viability, T/C: 83%
[23]
  viability, T/C: 86.3%
[24]
  viability, T/C: 85.2%
[43]
  viability, T/C: 73.8%
[44]
  viability, T/C: 61.9%
[27]
  viability, T/C: 107%
[28]
  viability, T/C: 91.3%
[29]
  viability, T/C: 82.7%
[30]
  viability, T/C: 77.8%
[45]
  viability, T/C: 60.2%
[46]
  viability, T/C: 55.1%
[33]
  viability, T/C: 95.4%
[34]
  viability, T/C: 99.9%
[35]
  viability, T/C: 92.5%
[36]
  viability, T/C: 72.6%
[47]
  viability, T/C: 67.6%
[48]
  viability, T/C: 62.8%

## C=CCn1c(=O)c2cnc(Nc3ccc(N4CCN(C)CC4)cc3)nc2n1-c1cccc(C(C)(C)O)n1 + Cc1cccc(N(C)C(=O)C2C(O)CCN2c2nc(C)cc(C(F)(F)F)c2C#N)c1
Second compound 0.0316 µM
  IC50: > 1 µM
Second compound 0.1 µM
  IC50: > 1 µM
Second compound 0.316 µM
  IC50: > 1 µM
Second compound 1 µM
  IC50: > 1 µM
Second compound 3.16 µM
  IC50: > 1 µM
Second compound 10 µM
  IC50: > 1 µM
[1]
  viability, T/C: 103%
[2]
  viability, T/C: 98.2%
[3]
  viability, T/C: 96.8%
[4]
  viability, T/C: 112%
[5]
  viability, T/C: 96.2%
[6]
  viability, T/C: 79.3%
[7]
  viability, T/C: 99.4%
[8]
  viability, T/C: 98.9%
[9]
  viability, T/C: 88.2%
[10]
  viability, T/C: 84%
[11]
  viability, T/C: 99%
[12]
  viability, T/C: 77.7%
[13]
  viability, T/C: 97.8%
[14]
  viability, T/C: 97.2%
[15]
  viability, T/C: 114%
[16]
  viability, T/C: 106%
[17]
  viability, T/C: 93%
[18]
  viability, T/C: 68.2%
[19]
  viability, T/C: 92.8%
[20]
  viability, T/C: 91.4%
[21]
  viability, T/C: 108%
[22]
  viability, T/C: 103%
[23]
  viability, T/C: 117%
[24]
  viability, T/C: 80.9%
[25]
  viability, T/C: 112%
[26]
  viability, T/C: 88.9%
[27]
  viability, T/C: 111%
[28]
  viability, T/C: 89%
[29]
  viability, T/C: 94.1%
[30]
  viability, T/C: 77.8%
[31]
  viability, T/C: 82.1%
[32]
  viability, T/C: 111%
[33]
  viability, T/C: 104%
[34]
  viability, T/C: 87%
[35]
  viability, T/C: 101%
[36]
  viability, T/C: 71%
